Data on five compounds can be found in patent publication US8697692B2, “Pyrrolo [3,2-c] pyridine-4-one 2-indolinone protein kinase inhibitors” (Shanghai Hengrui Pharmaceutical Co., Ltd., priority 2006, dated 2014).

Each structure is given as a SMILES string. Like-named read-outs stand apart in the source and are kept apart here.

For test [1], the system named is A431 cell. Description: Cell Proliferation Inhibition EGFR Assay (SRB method). It counts as cell-based, homo sapient. The conditions noted are these: Homo sapiens, read-out: IC50 (A431). An excerpt:
The following in vitro assay may be used to determine the level of activity and effect of different compounds of the present invention on the proliferation inhibition (cell toxic) of […] growth factor receptor (EGFR) high expressing homo […] cancer cell-A431 cell. The cellular assay described here measure the compounds of their anti-angiogenesis and proliferation inhibition activity and effect through EGFR on the cancer cells in vitro. The effect and activity is represented by the IC50 value that kills the cancer cell. […] The homo […] highly express EGFR are chosen and seeded to 96-well cell culture plate at a suitable concentration (exp 5000 cells/ml medium). The cells then are cultured in carbon dioxide (CO2) incubator till when they confluence to about 85%. Then, the cell culture medium is replaced by fresh one with tested compounds added in it at serial concentrations (general 6 to 7 concentrations). Then the cells are put back to the culture and cultured for continuous 72 hours. 72 hours later, the cell exposed to compounds and control cell are assayed for their proliferation using Sulforhodamine B (SRB) method. Compounds IC50 on tested cells are calculated by the data of inhibition rates of serial concentrations of the tested compounds. • a. Dimethyl sulfoxide (Sinophma chemical reagent company, catalog No. T20050806) • b. A431 cells (Purchased from Institute of biochemistry and cell biology) • c. Falcon 100 mm cell culture plates (Baton Dickison Labware, Baton Dickison and company, • Catalog No. 18677) • d. coming 96-well culture cluster (Corning Incorporated, Catalog No. 3599) • e. Fisher Pipette (Fisher scientific, Catalog No. 03-692-164) • f. DMEM/F12 cell medium (Gibco, Catalog No. 12400-024) • g. Fetal bovine serum, origin from Australia (Gibco, Catalog No. 10099-141) • h. […] Sulforhodamine B (Sigma, Catalog No. 3520-42-1) • k. Acetic Acid (Sinophma chemical reagent company, Catalog No. T20060508) • l. Trichloroacetic Acid (Sinophma chemical reagent company, Catalog No. T20060305) • m. Tris base (Amresco, Catalog No. 0826) • n. Class II A/B3 Biological safety cabinet (ThermoForma Catalog No. HB0053 03) • o. Series II water jacketed CO2 incubator (ThermoForma Model: 3111) • p. Centrifuge (Fisher Scientific Marathon 8 k, Catalog No. 0027-02) • q. Novastar Plate reader (BMG Labtech, Catalog No. 700 0081) • r. Orbital Shaker (Qilinbeier, Catalog No. TS-1) Protocol: […] Growing seeded 96-well plates at 37° C., 5% CO2, till 85% confluence. • 4. Prepare compounds stock solution, using DMSO solve candidate compounds to a concentration of 20 mM. […] Use cell culture medium (in this case, DMEM/F12+10% FBS) to dilute the compounds solution prepared above. Each DMSO serial concentration compound solution is diluted by 20 times with culture medium by adding 5 μl DMSO compound solution to 95 μl culture medium, then mix well by vortex. This promise that the DMSO concentration at that the A431 cell will exposed to will not surpass 0.5%. • 6. […] Each well added 180 μl medium, then add 20 μl medium solution of tested compounds prepared at step 5 to each well. For control group cell, add 20 μl culture medium containing 0.5% pure DMSO. […] Each 96-well plate, we can test 3 compounds with a control cell group. • 7. Put the culture plates back to incubator, culture for 72 hours at 37° C., 5% CO2. • 8. 72 hours later, remove cultures from incubator into sterile work area. • 9. Prepare fixative (50% Trichloroacetic Acid-TCA) by adding reagent grade water to the TCA, fix the cells by gently layering […] of cold TCA solution on top of the growth medium. • 10. Incubate plates for 1 hour at 4° C. and then rinse with water several times to remove TCA, serum proteins, etc. Plates are air dried and stored until use. Bland background optical density is measured in wells incubated with growth medium without cells. • 11. Use 10% acetic acid solution to prepare 0.4% Sulforhodamine B solution. Add 50 μl sulforhodamine B solution to each well of 96-well plates. • 12. […]
For orientation: Sulforhodamine B stains cellular protein and so reports cell mass.

The target in test [2] is T1, EGFR kinase (Homo sapiens, UniProt P00533).
T1 construct: purchased Cell signaling technology #7908
T1 sequence (P00533 25-1210): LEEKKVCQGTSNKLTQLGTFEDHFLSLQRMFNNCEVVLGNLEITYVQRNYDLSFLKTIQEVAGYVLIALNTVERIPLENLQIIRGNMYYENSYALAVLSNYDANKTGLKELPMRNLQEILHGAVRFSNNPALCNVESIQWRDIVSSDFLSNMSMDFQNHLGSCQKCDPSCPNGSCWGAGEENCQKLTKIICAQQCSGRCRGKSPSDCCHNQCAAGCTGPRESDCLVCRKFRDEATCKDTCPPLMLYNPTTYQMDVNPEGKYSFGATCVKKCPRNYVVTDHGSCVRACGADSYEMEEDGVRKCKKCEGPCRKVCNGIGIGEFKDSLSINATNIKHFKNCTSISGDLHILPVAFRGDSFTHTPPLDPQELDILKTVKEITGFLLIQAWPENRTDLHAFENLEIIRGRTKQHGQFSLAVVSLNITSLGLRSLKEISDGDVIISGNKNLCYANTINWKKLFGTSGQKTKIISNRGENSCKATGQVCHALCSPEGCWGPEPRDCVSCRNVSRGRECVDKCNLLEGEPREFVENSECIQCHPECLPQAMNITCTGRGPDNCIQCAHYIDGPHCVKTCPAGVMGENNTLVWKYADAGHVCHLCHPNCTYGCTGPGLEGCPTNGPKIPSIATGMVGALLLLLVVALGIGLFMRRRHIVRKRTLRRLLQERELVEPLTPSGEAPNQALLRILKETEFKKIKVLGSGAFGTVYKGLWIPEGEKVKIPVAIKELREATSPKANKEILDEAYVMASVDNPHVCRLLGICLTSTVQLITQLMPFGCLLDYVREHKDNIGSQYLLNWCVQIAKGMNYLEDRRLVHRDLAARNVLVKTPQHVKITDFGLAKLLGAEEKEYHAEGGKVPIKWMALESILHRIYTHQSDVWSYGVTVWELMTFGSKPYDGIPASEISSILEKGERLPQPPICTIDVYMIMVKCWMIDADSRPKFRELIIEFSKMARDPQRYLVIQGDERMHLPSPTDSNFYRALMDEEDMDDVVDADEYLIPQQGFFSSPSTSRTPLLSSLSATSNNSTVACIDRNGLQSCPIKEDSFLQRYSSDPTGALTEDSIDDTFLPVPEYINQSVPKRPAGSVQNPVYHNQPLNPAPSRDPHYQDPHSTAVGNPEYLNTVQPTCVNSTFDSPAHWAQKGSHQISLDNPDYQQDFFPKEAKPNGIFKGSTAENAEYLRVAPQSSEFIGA
The test can be described thus: EGFR Kinase Assay. Type of test: biochemical. Particulars: 20 μM ATP, 25° C. 45 minutes. How it is done:
EGFR kinase activity in vitro was measured as described below:
a. Wash Buffer (PBS-T Buffer): 1×PBS (137 mM NaCl, 2.7 mM KCl, 4.3 mM Na2HPO4, 1.4 mM KH2PO4, adjust the pH to 7.2) and 0.05% Tween-20.
b. 1% Bovine Serum Albumin (BSA, Calbiochem #136593) in PBS-T.
c. Stop Buffer: 50 mM EDTA, pH 8.0
d. DELFIA® Europium-labeled Anti-mouse IgG (PerkinElmer Life Sciences #AD0124)
e. DELFIA® Enhancement Solution (PerkinElmer Life Sciences #1244-105)
f. DELFIA® Streptavidin coated, 96-well, yellow plate (PerkinElmer Life Sciences #AAAND-0005)
g. EGFR kinase (supplied in 50 mM Tris-HCl (pH 8.0), 100 mM NaCl, 5 mM DTT, 15 mM reduced glutathione and 20% glycerol. Cell signaling technology #7908).
h. 10 mM ATP solution (Cell signaling technology #9804).
i. PTP1B (Tyr66) Biotinylated Peptide (Cell signaling technology #1325).
j. Phospho-Tyrosine Mouse mAb (P-Tyr-100) (Cell signaling technology #9411).
k. HTScan™ Tyrosine Kinase Buffer (4×)
(Cell signaling technology #9805).
l. 1.25 M DTT (1000×) (Cell signaling technology).
The following protocol was used:
1. Dilute test compound with DMSO to the desired final assay concentration.
2. Dilute 6 μM substrate peptide (Tyr66) 1:1 with dH2O, add 15 μl to every assay.
3. Immediately transfer EGFR enzyme from −80° C. to ice. Allow enzyme to thaw on ice.
4. Take 3 μg EGFR enzyme to the enzyme tube.
5. Add 10 μl of DTT (1.25 M) to 2.5 ml of 4×HTScan™ Tyrosine Kinase Buffer (240 mM HEPES pH 7.5, 20 mM MgCl2, 20 mM MnCl2, 12 μM Na3VO4) to make DTT/Kinase buffer.
6. Transfer 0.75 ml of DTT/Kinase buffer to each enzyme tube to make 4× reaction cocktail. Add 7.5 μl 4× reaction cocktail to every assay.
7. Add 4 μl ATP (10 mM) to 496 μl dH2O, take 7.5 μl for every assay.
Final Assay Conditions for a 30 μl Reaction
Incubate reaction tube at 25° C. for 45 minutes. 9. Add 30 μl/assay stop buffer (50 mM EDTA, pH 8.0) to stop the reaction. 10. Transfer 25 μl of each reaction and 75 μl dH2O/well to a 96-well streptavidin coated plate and incubate, with shaking at room temperature for 60 minutes. 11. Wash three times with 200 μl/well PBS-T buffer. Pat plate on paper towel to remove excess liquid. 12. Dilute primary antibody, Phospho-Tyrosine mAb (P-Tyr-100), 1:1000 in PBS-T buffer with 1% BSA. Add 100 μl diluted primary antibody to each well. 13. Incubate, with shaking at room temperature for 60 minutes. 14. Wash as described above in step 11. 15. Dilute Europium labeled anti-mouse IgG 1:500 in PBS-T buffer with 1% BSA. Add 100 μl diluted antibody to each well. 16. Incubate, with shaking at room temperature for 30 minutes. 17. Wash five times with 200 μl/well PBS-T buffer. Pat plate on paper towel to remove excess liquid. 18. Add 100 μl/well DELFIA® Enhancement Solution. 19. Incubate, with shaking at room temperature for 5 minutes. 20. Detect 615 nm fluorescence emission with appropriate Time-Resolved Plate Reader.
Calculate the inhibition rate: IR (%)=100−100*(X−B)/(N−B)
X=the fluorescence value of the well contained test compound
The IC50 value can be derived from the IRs of compounds at different concentration gradients.

Test [3] concerns HUVEC cell. The test can be described thus: Cell Proliferation Inhibition VEGF-R2 Assay (SRB method). Particulars: Homo sapiens; HUVEC cells, 72 hours exposure, Sulforhodamine B; read-out: IC50 (VEGFR/HUVEC). Type of test: cell-based, homo sapient. An excerpt:
The following in vitro assay may be used to determine the level of activity and effect of different compounds of the present invention on the proliferation inhibition (cell toxic) of endothelium growth factor receptor (VEGFR) high expressing homo […] cancer cell-HUVEC cell. The cellular assay described here measure the compounds of their anti-angiogenesis and proliferation inhibition activity and effect through […] on the cancer cells in vitro. The effect and activity is represented by the IC50 value that kills the cancer cell. […] The homo […] highly express […] are chosen and seeded to 96-well cell culture plate at a suitable concentration (exp 5000 cells/ml medium). The cells then are cultured in carbon dioxide (CO2) incubator till when they confluence to about 85%. Then, the cell culture medium is replaced by fresh one with tested compounds added in it at serial concentrations (general 6 to 7 concentrations). Then the cells are put back to the culture and cultured for continuous 72 hours. 72 hours later, the cell exposed to compounds and control cell are assayed for their proliferation using Sulforhodamine B (SRB) method. […] Dimethyl sulfoxide (Sinophma chemical reagent company, catalog No. T20050806) • b. HUVEC cells (Purchased from Institute of biochemistry and cell biology) • c. […] Acetic Acid (Sinophma chemical reagent company, Catalog No. T20060508) • l. Trichloroacetic Acid (Sinophma chemical reagent company, Catalog No. T20060305) • m. […] Class II A/B3 Biological safety cabinet (ThermoForma Catalog No. HB0053-03) • o. […] Centrifuge (Fisher Scientific Marathon 8 k, Catalog No. 0027-02) • q. Novastar Plate reader (BMG Labtech, Catalog No. 700-0081) • r. […] Growing seeded 96-well plates at 37° C., 5% CO2, till 85% confluence. • 4. Prepare compounds stock solution, using DMSO solve candidate compounds to a concentration of 20 mM. […] Use cell culture medium (in this case, DMEM/F12+10% FBS) to dilute the compounds solution prepared above. Each DMSO serial concentration compound solution is diluted by 20 times with culture medium by adding 5 μl DMSO compound solution to 95 μl culture medium, then mix well by vortex. […] After HUVEC cell has attached to the dish bottom and confluence about 85%, change the culture medium with fresh DMEM/F12 plus 10% FBS. Each well added 180 μl medium, then add 20 μl medium solution of tested compounds prepared at step 5 to each well. For control group cell, add 20 μl culture medium containing 0.5% pure DMSO. […] Each 96-well plate, we can test 3 compounds with a control cell group. • 7. Put the culture plates back to incubator, culture for 72 hours at 37° C., 5% CO2. • 8. 72 hours later, remove cultures from incubator into sterile work area. • 9. Prepare fixative (50% Trichloroacetic Acid-TCA) by adding reagent grade water to the TCA, fix the cells by gently layering 50 μl of cold TCA solution on top of the growth medium. • 10. Incubate plates for 1 hour at 4° C. and then rinse with water several times to remove TCA, serum proteins, etc. Plates are air dried and stored until use. Bland background optical density is measured in wells incubated with growth medium without cells. • 11. Use 10% acetic acid solution to prepare 0.4% Sulforhodamine B solution. Add 50 μl sulforhodamine B solution to each well of 96-well plates. • 12. Allow cells to stain for 30 minutes. • 13. Prepared the wash solution of […] acetic acid. At the end of the staining period, the stain is removed and the cells rinsed quickly with 1% acetic acid. Repeat until unincorporated dye is removed. Keep wash times to a minimum to reduce desorption of protein-bound dye. After being rinsed, the cultures are air dried until no moisture is visible. • 14. The incorporated dye is then solubilized in a volume of Sulforhodamine B assay Solubilization solution (10 mM Tris) equal to the original volume of culture medium. Allow cultures to stand for 5 minutes at room temperature.

For `Cc1c(/C=C2\C(=O)Nc3ccc(F)cc32)[nH]c2c1C(=O)N(CCN1CCCC1)CC2` [Example 13, 2-(5-Fluoro-2-oxo-1,2-dihydro-indol-3-ylidenemethyl)-3-methyl-5-(2-pyrrolidin-1-yl-ethyl)-1,5,6,7-tetrahydro-pyrrolo[3,2-c]pyridin-4-one], the IC50 was 1310 nM in test [1] (A-431, A431 cells, 72 hours exposure, Sulforhodamine B) and 190 nM in test [2].
As for `CCN(CC)CCN1CCc2[nH]c(/C=C3\C(=O)Nc4ccc(Br)cc43)c(C)c2C1=O` [Example 3, 2-(5-Bromo-2-oxo-1,2-dihydro-indol-3-ylidenemethyl)-5-(2-diethylamino-ethyl)-3-methyl-1,5,6,7-tetrahydro-pyrrolo[3,2-c]pyridin-4-one], the IC50 in test [1] (A-431, 72 h) came out at 1260 nM; in test [2], 490 nM.
Regarding `O=C1Nc2ccc(Br)cc2/C1=C/c1[nH]c2c(c1-c1ccccc1)C(=O)NCC2` [Example 41, 2-(5-Bromo-2-oxo-1,2-dihydro-indol-3-ylidenemethyl)-3-phenyl-1,5,6,7-tetrahydro-pyrrolo[3,2-c]pyridin-4-one], the figures for the IC50 in test [3] and in test [2] were 220 nM and 6010 nM, respectively.
On to `CCN(CC)CCN1CCc2[nH]c(/C=C3\C(=O)Nc4ccc(F)cc43)c(C)c2C1=O` [Example 1, 5-(2-Diethylamino-ethyl)-2-(5-fluoro-2-oxo-1,2-dihydro-indol-3-ylidenemethyl)-3-methyl-1,5,6,7-tetrahydro-pyrrolo[3,2-c]pyridin-4-one], for which the IC50 in test [1] (A-431, 72 h) was determined as 1090 nM; in test [2], 280 nM.
The matching figures for `CCN(CC)CCN1CCc2[nH]c(/C=C3\C(=O)Nc4ccc(Cl)cc43)c(C)c2C1=O` [Example 2, 2-(5-Chloro-2-oxo-1,2-dihydro-indol-3-ylidenemethyl)-5-(2-diethylamino-ethyl)-3-methyl-1,5,6,7-tetrahydro-pyrrolo[3,2-c]pyridin-4-one]: 1040 nM and 290 nM.
